Laboratory results reported in US20190269702A1, “COMPOSITIONS AND METHODS FOR TREATING NONINFECTIOUS UVEITIS” (CLEARSIDE BIOMEDICAL, INC., priority 2018, published 2019).

Tested on: treatment-naïve DME eyes
Type: in vivo, human
Method: A study was conducted to evaluate suprachoroidal CLS-TA in combination with intravitreal aflibercept, compared to aflibercept monotherapy for DME. SCS injections target chorioretinal tissues more directly than intravitreal injections while limiting exposure to the anterior chamber, thereby offering potential safety, efficacy, and durability advantages. The study was a Phase 2, multicenter, randomized, double-masked, controlled, 24-week study in treatment-naïve DME eyes (eligibility: CST >300 μm; 20-70 ETDRS letters) randomized 1:1 to CLS-TA+aflibercept or aflibercept monotherapy. Patients in the combination arm (n=36) received CLS-TA and aflibercept at baseline & week 12 ([…]). Patients in the monotherapy arm (n=35) received aflibercept at baseline, W4, W8 and […]. […] The study is referred to as the TYBEE study in some embodiments herein.

Substance: aflibercept
- eyes with macular edema resolved (<300 μm) (W4): 21%
- mean CST change (W24): −176 μm
- gain in BCVA letters from baseline (W24, per protocol arms): +13.5 letters
- mean PRN aflibercept treatments (at W16 & W20): 0.7
- cataract observed (in vivo): 2.9%
- elevated IOP observed (in vivo): 2.9%
- treatment-related serious AEs (in vivo): No treatment-related serious AEs were observed
- average number of treatments (through week 24): 4.7
